Test [1] deals with T1, CDK2/cyclin A (Homo sapiens, UniProt P24941).
T1 construct: made in house; host or cells: insect cells infected with baculoviruses
Kind of test: Inhibitory activity against CDK2/cyclin A enzyme (GST-RB phosphorylation, P32-γ-ATP, scintillation counting). In kind it is biochemical. To be noted: 100 μM ATP, GST-RB substrate, 30° C. 30 minutes. On the procedure:
(§1) Analysis of inhibitory activity against CDK2/cyclin A and CDK4/cyclin D1 enzyme.
(§2) The inhibitory activity against CDK2 is measured by referring to Kitagawa, M. et al., Oncogene 9:2549, 1994 and the inhibitory activity against CDK4 is measured by referring to Carlson, B. A. et al., Cancer Research 56:2473,1996.
(§3) As for CDK2, either the extract from the insect cell infected both with baculovirus which expresses CDK2 gene and baculovirus which expresses cyclin A gene or the active enzyme which had been purified therefrom was used. CDK4 enzyme was also obtained from the insect cell infected both with baculovirus expressing CDK4 gene and baculovirus expressing cyclin D1 gene. As the substrate for CDK2, either histon H1 or Rb protein was used. Rb protein was also used as the substrate for CDK4.
(§4) Specifically the activities of enzymes CDK2/cyclin A and CDK4/cyclin D1 were determined according to the following procedure.
(§5) 100 ng of enzyme was reacted in a total 1000 μl of 20 mM Tris (pH 8.0), 100 mM NaCl, 10 mM MgCl2 buffer solution containing 20 μg of GST-RB protein, 100 μM of ATP and 5 μCi of P32-γ-ATP at 30° C. for 30 minutes. Then, the enzyme reaction was stopped by adding EDTA to a concentration of 20 mM. Subsequently, 30 μl of 50% glutathione bead (purchased from Pharmacia) was added to attach GST-RB to the bead, which was washed three times with 20mM Tris (pH 8.0), 100 mM NaCl, 10 mM EDTA solution, and then scintillation counting was carried out. To analyze the inhibitory activity of the compound, the inhibitor having a proper concentration was added to the enzyme reaction solution, and then the enzyme activity was measured according to the above method.
(§6) The inhibitory activity of the compound of formula (1) according to the present invention against CDK2 and CDK4 is represented as IC50 value. The compounds which are not included in Examples(compound 63, 64, 65 and 66) were synthesized and purified according to the same procedure as examples, and then IC50 thereof was measured.

Test [2] deals with T2, CDK4/cyclin D1 (Homo sapiens, UniProt P11802).
T2 construct: made in house; host or cells: insect cells infected with baculoviruses
T2 sequence (P11802 whole entry, species assumed): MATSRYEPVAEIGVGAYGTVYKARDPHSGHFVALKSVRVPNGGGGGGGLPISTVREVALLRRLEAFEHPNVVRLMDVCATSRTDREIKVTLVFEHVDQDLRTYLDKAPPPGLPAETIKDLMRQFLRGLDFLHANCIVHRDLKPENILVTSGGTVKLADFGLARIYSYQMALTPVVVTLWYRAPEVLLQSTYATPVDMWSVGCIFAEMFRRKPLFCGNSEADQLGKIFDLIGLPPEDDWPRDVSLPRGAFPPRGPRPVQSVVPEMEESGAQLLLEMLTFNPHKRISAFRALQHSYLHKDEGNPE
T2 sequence (P24385 whole entry partner, species assumed): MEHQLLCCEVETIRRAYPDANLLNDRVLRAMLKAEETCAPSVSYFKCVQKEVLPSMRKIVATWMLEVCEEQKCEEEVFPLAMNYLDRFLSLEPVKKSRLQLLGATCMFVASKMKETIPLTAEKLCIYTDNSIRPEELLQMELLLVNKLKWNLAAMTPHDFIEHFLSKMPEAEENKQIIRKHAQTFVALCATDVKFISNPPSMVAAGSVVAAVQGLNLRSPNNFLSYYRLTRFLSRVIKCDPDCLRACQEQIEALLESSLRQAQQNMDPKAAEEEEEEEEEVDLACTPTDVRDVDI
Kind of test: Inhibitory activity against CDK4/cyclin D1 enzyme (GST-RB phosphorylation, P32-γ-ATP, scintillation counting). In kind it is biochemical. The settings on record: CDK4/cyclin D1, 100 μM ATP, GST-RB substrate, 30° C. 30 minutes. The procedure: as §1, §2, §3, §4, §5, §6

pIC50: −log10 of the molar value.

The source of these data is patent publication US6500846B1, “CDK inhibitors having flavone structure” (LG Chemical, Ltd., priority 1998, dated 2002).

Regarding `O=c1c(O)c(-c2ccc(O)c(O)c2)oc2ccc(NS(=O)(=O)c3ccc(-c4ccon4)s3)cc12` [Compound 36, N-[2-(3,4-dihydroxyphenyl)-3-hydroxy-4-oxo-4H-chromen-6-yl]-5-(isooxazolyl)-2-thiophenesulfonamide], the pIC50 in test [1] is 4.92; in test [2], 5.46.

Regarding `O=c1c(O)c(-c2ccc(O)c(O)c2)oc2ccc(NS(=O)(=O)c3ccc(-c4ccccn4)s3)cc12` [Compound 37, N-[2-(3,4-dihydroxyphenyl)-3-hydroxy-4-oxo-4H-chromen-6-yl]-5-(2-pyridinyl)-2-thiophenesulfonamide], the pIC50 in test [1] was 4.90; in test [2], 5.38.

For `O=c1c(O)c(-c2ccc(O)c(O)c2)oc2ccc(NS(=O)(=O)c3ccc(F)c(F)c3)cc12` [Compound 38, N-[2-(3,4-dihydroxyphenyl)-3-hydroxy-4-oxo-4H-chromen-6-yl]-3,4-difluorobenzenesulfonamide], the pIC50 is 4.72 in test [1] and 5.59 in test [2].

On to `O=c1c(O)c(-c2ccc(O)c(O)c2)oc2ccc(NS(=O)(=O)c3ccc(Cl)c([N+](=O)[O-])c3)cc12` [Compound 40, 4-chloro-N-[2-(3,4-dihydroxyphenyl)-3-hydroxy-4-oxo-4H-chromen-6-yl]-3-nitrobenzenesulfonamide], for which the pIC50 in test [1] is 4.10; in test [2], 5.60.

Take `O=c1c(O)c(-c2ccc(O)c(O)c2)oc2ccc(NS(=O)(=O)CCCCl)cc12` [Compound 41, 3-chloro-N-[2-(3,4-dihydroxyphenyl)-3-hydroxy-4-oxo-4H-chromen-6-yl]-1-propanesulfonamide]: the pIC50 in test [1] was 4.70; in test [2] it was 5.19.

On to `O=c1c(O)c(-c2ccc(O)c(O)c2)oc2ccc(NS(=O)(=O)c3ccc(F)cc3F)cc12` [Compound 42, N-[2-(3,4-dihydroxyphenyl)-3-hydroxy-4-oxo-4H-chromen-6-yl]-2,4-difluorobenzenesulfonamide], for which the pIC50 is 4.34 in test [1] and 5.37 in test [2].

For `O=c1c(O)c(-c2ccc(O)c(O)c2)oc2ccc(NS(=O)(=O)c3ccc(F)cc3)cc12` [Compound 43, N-[2-(3,4-dihydroxyphenyl)-3-hydroxy-4-oxo-4H-chromen-6-yl]-4-fluorobenzenesulfonamide], the pIC50 is 5.07 in test [1] and 5.68 in test [2].

With `O=C(N1CCc2ccc(S(=O)(=O)Nc3ccc4oc(-c5ccc(O)c(O)c5)c(O)c(=O)c4c3)cc2C1)C(F)(F)F` [Compound 44, N-[2-(3,4-dihydroxyphenyl)-3-hydroxy-4-oxo-4H-chromen-6-yl]-2-(2,2,2-trifluoroacetyl)-1,2,3,4-tetrahydro-7-isoquinolinesulfonamide], the pIC50 in test [1] is 5.39; in test [2], 5.64.

As for `O=C(O)c1ccc(S(=O)(=O)Nc2ccc3oc(-c4ccc(O)c(O)c4)c(O)c(=O)c3c2)cc1` [Compound 45, 4-({[2-(3,4-dihydroxyphenyl)-3-hydroxy-4-oxo-4H-chromen-6-yl]amino}sulfonyl)benzoic acid], the pIC50 is 4.55 in test [1] and 5.22 in test [2].

`O=c1c(O)c(-c2ccc(O)c(O)c2)oc2ccc(NS(=O)(=O)c3ccc4c(c3)CNCC4)cc12` [Compound 46, N-[2-(3,4-dihydroxyphenyl)-3-hydroxy-4-oxo-4H-chromen-6-yl]-1,2,3,4-tetrahydro-7-isoquinolinesulfonamide]: the pIC50 is 4.09 in test [1] and 5.20 in test [2].

As for `O=c1c(O)c(-c2ccc(O)c(O)c2)oc2ccc(NS(=O)(=O)NC3CCCCC3)cc12` [Compound 47, N-Cyclohexyl-N′-[2-(3,4-dihydroxyphenyl)-3-hydroxy-4-oxo-4H-chromen-6-yl]sulfamide], the pIC50 was 4.19 in test [1] and 5.70 in test [2].

Consider `CN1CCN(c2ccc(S(=O)(=O)Nc3ccc4oc(-c5ccc(O)c(O)c5)c(O)c(=O)c4c3)cc2[N+](=O)[O-])CC1` [Compound 49, N-[2-(3,4-dihydroxyphenyl)-3-hydroxy-4-oxo-4H-chromen-6-yl]-4-(4-methyl-1-piperazinyl)-3-nitrobenzenesulfonamide], for which the pIC50 in test [1] is 4.51; in test [2], 5.80.

Turning to `CN1CCN(c2ccc(S(=O)(=O)Nc3ccc4oc(-c5ccc(O)c(O)c5)c(O)c(=O)c4c3)cc2N)CC1` [Compound 50, 3-amino-N-[2-(3,4-dihydroxyphenyl)-3-hydroxy-4-oxo-4H-chromen-6-yl]-4-(4-methyl-1-piperazinyl)benzenesulfonamide], the results for the pIC50 in test [1] and in test [2] were under 3.70 and 4.52, respectively.

`O=C(Nc1ccc2oc(-c3ccc(O)c(O)c3)c(O)c(=O)c2c1)c1ccccc1` [Compound 52, N-[2-(3,4-dihydroxyphenyl)-3-hydroxy-4-oxo-4H-chromen-6-yl]benzamide]: the pIC50 in test [1] is 4.64; in test [2] it was 5.22.

In the case of `O=C(Nc1ccc2oc(-c3ccc(O)c(O)c3)c(O)c(=O)c2c1)c1ccc(Cl)cc1` [Compound 53, 4-chloro-N-[2-(3,4-dihydroxyphenyl)-3-hydroxy-4-oxo-4H-chromen-6-yl]benzamide], the pIC50 in test [1] is under 4.00; in test [2] it was 5.25.

Consider `O=C(NCc1ccccc1)Nc1ccc2oc(-c3ccc(O)c(O)c3)c(O)c(=O)c2c1` [Compound 54, N-benzyl-N′-[2-(3,4-dihydroxyphenyl)-3-hydroxy-4-oxo-4H-chromen-6-yl]urea], for which the pIC50 in test [1] was 5.64; in test [2], 5.55.

Take `O=C(Nc1ccc(Br)cc1)Nc1ccc2oc(-c3ccc(O)c(O)c3)c(O)c(=O)c2c1` [Compound 55, N-(4-bromophenyl)-N′-[2-(3,4-dihydroxyphenyl)-3-hydroxy-4-oxo-4H-chromen-6-yl]urea]: the pIC50 in test [1] was 5.89; in test [2] it was 6.15.

For the compound `O=C(Nc1ccccc1)Nc1ccc2oc(-c3ccc(O)c(O)c3)c(O)c(=O)c2c1` [Compound 56, N-[2-(3,4-dihydroxyphenyl)-3-hydroxy-4-oxo-4H-chromen-6-yl]-N′-phenylurea], the pIC50 is 5.30 in test [1] and 5.38 in test [2].

As for `O=C(Nc1cccc(Br)c1)Nc1ccc2oc(-c3ccc(O)c(O)c3)c(O)c(=O)c2c1` [Compound 58, N-(3-bromophenyl)-N′-[2-(3,4-dihydroxyphenyl)-3-hydroxy-4-oxo-4H-chromen-6-yl]urea], the pIC50 in test [1] and in test [2] was 5.38 throughout.

Turning to `O=C(Nc1ccc2oc(-c3ccc(O)c(O)c3)c(O)c(=O)c2c1)Nc1ccc(Cl)cc1Cl` [Compound 59, N-(2,4-dichlorophenyl)-N′-[2-(3,4-dihydroxyphenyl)-3-hydroxy-4-oxo-4H-chromen-6-yl]-urea], the pIC50 was 4.70 in test [1] and 5.00 in test [2].

For `N#Cc1cccc(NC(=O)Nc2ccc3oc(-c4ccc(O)c(O)c4)c(O)c(=O)c3c2)c1` [Compound 60, N-(3-cyanophenyl)-N′-[2-(3,4-dihydroxyphenyl)-3-hydroxy-4-oxo-4H-chromen-6-yl]urea], the pIC50 was 5.33 in test [1] and 5.57 in test [2].

For `O=C(Nc1ccc([N+](=O)[O-])cc1)Nc1ccc2oc(-c3ccc(O)c(O)c3)c(O)c(=O)c2c1` [Compound 61, N-[2-(3,4-dihydroxyphenyl)-3-hydroxy-4-oxo-4H-chromen-6-yl]-N′-(4-nitrophenyl)urea], the pIC50 in test [1] was 5.25; in test [2], 5.77.

As for `Nc1ccc(NC(=O)Nc2ccc3oc(-c4ccc(O)c(O)c4)c(O)c(=O)c3c2)cc1` [Compound 62, N-(4-aminophenyl)-N′-[2-(3,4-dihydroxyphenyl)-3-hydroxy-4-oxo-4H-chromen-6-yl]urea], the pIC50 was 5.59 in test [1] and 5.64 in test [2].

As to `O=c1c(O)c(-c2ccc(O)c(O)c2)oc2ccccc12` [Compound 63, 2-(3,4-dihydroxyphenyl)-3-hydoxy-4H-chromen-4-one], the pIC50 in test [1] and in test [2] was over 5.00 each time.

Regarding `O=c1c(O)c(-c2ccc(O)c(O)c2)oc2cc(O)ccc12` [Compound 64, 2-(3,4-dihydroxyphenyl)-3,7-dihydroxy-4H-chromen-4-one], the pIC50 in test [1] is over 5.30; in test [2], over 5.00.

Turning to `O=c1c(O)c(-c2ccc(O)c(O)c2)oc2cc(O)cc(O)c12` [Compound 65, 2-(3,4-dihydroxyphenyl)-3,5,7-trihydroxy-4H-chromen-4-one], the pIC50 in test [1] and in test [2] was over 4.30 in each case.

As to `O=c1c(O)c(-c2ccc(O)c(O)c2)oc2c(O)c(O)ccc12` [Compound 66, 2-(3,4-dihydroxyphenyl)-3,7,8-trihydroxy-4H-chromen-4-one], the negative-log IC50 (pIC50) in test [1] and in test [2] was over 5.00 in each case.

One may read the pIC50 as the IC50 on a negative log10 scale, so that one unit is a factor of ten.
